Results: patent US9382255B2, “Substituted pyrrolopyrimidinylamino-benzothiazolones as MKNK kinase inhibitors” (BAYER PHARMA AKTIENGESELLSCHAFT, priority 2012, dated 2016)

Molecular target: T1, human full-length MKNK1 (Homo sapiens, UniProt Q9BUB5, T385D)
T1 construct: GST (N); purchased Carna Biosciences 02-145; host or cells: insect cells (baculovirus expression system)
Experiment: MKNK1 kinase high ATP assay (TR-FRET)
Format: biochemical
Conditions: high ATP (2 mM final), 15 min preincubation with enzyme, GST-MKNK1 (T344D)
Procedure: MKNK1 Kinase High ATP Assay
MKNK1-inhibitory activity at high ATP of compounds of the present invention after their preincubation with MKNK1 was quantified employing the TR-FRET-based MKNK1 high ATP assay as described in the following paragraphs.
A recombinant fusion protein of Glutathione-S-Transferase (GST, N-terminally) and human full-length MKNK1 (amino acids 1-424 and T344D of accession number BAA 19885.1), expressed in insect cells using baculovirus expression system and purified via glutathione sepharose affinity chromatography, was purchased from Carna Biosciences (product no 02-145) and used as enzyme. As substrate for the kinase reaction the biotinylated peptide biotin-Ahx-IKKRKLTRRKSLKG (C-terminus in amide form) was used, which can be purchased e.g. from the company Biosyntan (Berlin-Buch, Germany).
For the assay 50 nL of a 100 fold concentrated solution of the test compound in DMSO was pipetted into a black low volume 384 well microtiter plate (Greiner Bio-One, Frickenhausen, Germany), 2 μL of a solution of MKNK1 in aqueous assay buffer [50 mM HEPES pH 7.5, 5 mM MgCL2, 1.0 mM dithiothreitol, 0.005% (v/v) Nonidet-P40 (Sigma)] was added and the mixture was incubated for 15 min at 22° C. to allow pre-binding of the test compounds to the enzyme before the start of the kinase reaction. Then the kinase reaction was started by the addition of 3 μL of a solution of adenosine-tri-phosphate (ATP, 3.3 mM=>final conc. in the 5 μL assay volume is 2 mM) and substrate (0.1 μM=>final conc. in the 5 μL assay volume is 0.06 μM) in assay buffer and the resulting mixture was incubated for a reaction time of 30 min at 22° C. The concentration of MKNK1 was adjusted depending of the activity of the enzyme lot and was chosen appropriate to have the assay in the linear range, typical concentrations were in the range of 0.003 μg/mL. The reaction was stopped by the addition of 5 μL of a solution of TR-FRET detection reagents (5 nM streptavidine-XL665 [Cisbio Bioassays, Codolet, France] and 1 nM anti-ribosomal protein S6 (pSer236)-antibody from Invitrogen [#44921G] and 1 nM LANCE EU-W1024 Labeled ProteinG [Perkin-Elmer, product no. AD0071]) in an aqueous EDTA-solution (100 mM EDTA, 0.1% (w/v) bovine serum albumin in 50 mM HEPES pH 7.5).
The resulting mixture was incubated for 1 h at 22° C. to allow the formation of complex between the phosphorylated biotinylated peptide and the detection reagents. Subsequently the amount of phosphorylated substrate was evaluated by measurement of the resonance energy transfer from the Eu-chelate to the streptavidine-XL. Therefore, the fluorescence emissions at 620 nm and 665 nm after excitation at 350 nm were measured in a TR-FRET reader, e.g. a Rubystar (BMG Labtechnologies, Offenburg, Germany) or a Viewlux (Perkin-Elmer). The ratio of the emissions at 665 nm and at […] was taken as the measure for the amount of phosphorylated substrate. The data were normalised (enzyme reaction without inhibitor=0% inhibition, all other assay components but no enzyme=100% inhibition).

T1 sequence (Q9BUB5 1-424 isoform Q9BUB5-2 T344D): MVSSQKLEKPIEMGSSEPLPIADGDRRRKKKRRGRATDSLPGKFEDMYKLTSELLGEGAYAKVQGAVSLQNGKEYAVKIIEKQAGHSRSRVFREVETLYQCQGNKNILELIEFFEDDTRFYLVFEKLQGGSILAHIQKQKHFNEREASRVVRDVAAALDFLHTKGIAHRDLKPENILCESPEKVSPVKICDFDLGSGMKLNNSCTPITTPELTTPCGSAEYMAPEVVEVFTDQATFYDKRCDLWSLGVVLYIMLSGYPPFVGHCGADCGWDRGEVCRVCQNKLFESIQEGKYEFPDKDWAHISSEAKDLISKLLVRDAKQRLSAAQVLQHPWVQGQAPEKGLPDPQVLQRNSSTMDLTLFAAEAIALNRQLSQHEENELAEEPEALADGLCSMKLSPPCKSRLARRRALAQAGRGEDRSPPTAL

SMILES	IC50
O=c1[nH]c2ccc(Nc3ncnc4[nH]ncc34)cc2s1 [Example 7, 6-(1H-pyrazolo[3,4-d]pyrimidin-4-ylamino)-1,3-benzothiazol-2(3H)-one]	44 nM
O=C(O)c1c[nH]c2ncnc(Nc3ccc4[nH]c(=O)sc4c3)c12 [Example 3, 4-[(2-Oxo-2,3-dihydro-1,3-benzothiazol-6-yl)amino]-7H-pyrrolo[2,3-d]pyrimidine-5-carboxylic acid]	7 nM
O=c1[nH]c2ccc(Nc3ncnc4[nH]c(Br)cc34)cc2s1 [Example 8, 6-[(6-Bromo-7H-pyrrolo[2,3-d]pyrimidin-4-yl)amino]-1,3-benzothiazol-2(3H)-one]	5 nM
CCc1[nH]c2ncnc(Nc3ccc4[nH]c(=O)sc4c3)c2c1C [Example 1, 6-[(6-Ethyl-5-methyl-7H-pyrrolo[2,3-d]pyrimidin-4-yl)amino]-1,3-benzothiazol-2(3H)-one]	27 nM
O=c1[nH]c2ccc(Nc3ncnc4[nH]c(Cl)cc34)cc2s1 [Example 16, 6-[(6-Chloro-7H-pyrrolo[2,3-d]pyrimidin-4-yl)amino]-1,3-benzothiazol-2(3H)-one]	11 nM
O=c1[nH]c2ccc(Nc3ncnc4[nH]ccc34)cc2s1 [Example 6, 6-(7H-Pyrrolo[2,3-d]pyrimidin-4-ylamino)-1,3-benzothiazol-2(3H)-one]	19 nM
Cc1c[nH]c2ncnc(Nc3ccc4[nH]c(=O)sc4c3)c12 [Example 15, 6-[(5-Methyl-7H-pyrrolo[2,3-d]pyrimidin-4-yl)amino]-1,3-benzothiazol-2(3H)-one]	9 nM
Cc1cc2c(Nc3ccc4[nH]c(=O)sc4c3)ncnc2[nH]1 [Example 14, 6-[(6-Methyl-7H-pyrrolo[2,3-d]pyrimidin-4-yl)amino]-1,3-benzothiazol-2(3H)-one]	25 nM
O=c1[nH]c2ccc(Nc3ncnc4[nH]cc(F)c34)cc2s1 [Example 2, 6-[(5-Fluoro-7H-pyrrolo[2,3-d]pyrimidin-4-yl)amino]-1,3-benzothiazol-2(3H)-one]	27 nM
CCc1[nH]c2ncnc(Nc3cc4sc(=O)[nH]c4cc3OC)c2c1C [Example 13, 6-[(6-Ethyl-5-methyl-7H-pyrrolo[2,3-d]pyrimidin-4-yl)amino]-5-methoxy-1,3-benzothiazol-2(3H)-one]	6 nM
CC(C)NC(=O)c1c[nH]c2ncnc(Nc3ccc4[nH]c(=O)sc4c3)c12 [Example 5, N-Isopropyl-4-[(2-oxo-2,3-dihydro-1,3-benzothiazol-6-yl)amino]-7H-pyrrolo[2,3-d]pyrimidine-5-carboxamide]	4 nM
CCOC(=O)c1cc2c(Nc3ccc4[nH]c(=O)sc4c3)ncnc2[nH]1 [Example 10, Ethyl 4-[(2-oxo-2,3-dihydro-1,3-benzothiazol-6-yl)amino]-7H-pyrrolo[2,3-d]pyrimidine-6-carboxylate]	2 nM
O=c1[nH]c2ccc(Nc3ncnc4[nH]c(C#CCO)cc34)cc2s1 [Example 11, 6-{[6-(3-Hydroxyprop-1-yn-1-yl)-7H-pyrrolo[2,3-d]pyrimidin-4-yl]amino}-1,3-benzothiazol-2(3H)-one]	6 nM
O=c1[nH]c2ccc(Nc3ncnc4[nH]cnc34)cc2s1 [Example 9, 6-(9H-Purin-6-ylamino)-1,3-benzothiazol-2(3H)-one]	11 nM
CN1CCN(C(=O)c2c[nH]c3ncnc(Nc4ccc5[nH]c(=O)sc5c4)c23)CC1 [Example 4, 6-({5-[(4-Methylpiperazin-1-yl)carbonyl]-7H-pyrrolo[2,3-d]pyrimidin-4-yl}amino)-1,3-benzothiazol-2(3H)-one]	19 nM

Second part, the compound after the results:

IC50	SMILES
20 nM	O=C(c1cc2c(Nc3ccc4[nH]c(=O)sc4c3)ncnc2[nH]1)N1CCOCC1 [Example 32, 6-{[6-(Morpholin-4-ylcarbonyl)-7H-pyrrolo[2,3-d]pyrimidin-4-yl]amino}-1,3-benzothiazol-2(3H)-one]
24 nM	O=C(c1[nH]c2ncnc(Nc3ccc4[nH]c(=O)sc4c3)c2c1Br)N1CCCCC1 [Example 33, 6-{[5-Bromo-6-(piperidin-1-ylcarbonyl)-7H-pyrrolo[2,3-d]pyrimidin-4-yl]amino}-1,3-benzothiazol-2(3H)-one]
36 nM	O=C(O)c1cc2c(Nc3ccc4[nH]c(=O)sc4c3)ncnc2[nH]1 [Example 30, 4-[(2-Oxo-2,3-dihydro-1,3-benzothiazol-6-yl)amino]-7H-pyrrolo[2,3-d]pyrimidine-6-carboxylic acid]
18 nM	COc1cc2[nH]c(=O)sc2cc1Nc1ncnc2[nH]c(Br)cc12 [Example 18, 6-[(6-Bromo-7H-pyrrolo[2,3-d]pyrimidin-4-yl)amino]-5-methoxy-1,3-benzothiazol-2(3H)-one]
32 nM	CC(C)Cc1[nH]c2ncnc(Nc3ccc4[nH]c(=O)sc4c3)c2c1C(C)C [Example 21, 6-[(6-Isobutyl-5-isopropyl-7H-pyrrolo[2,3-d]pyrimidin-4-yl)amino]-1,3-benzothiazol-2(3H)-one]
40 nM	CN(C)C1CCN(C(=O)c2cc3c(Nc4ccc5[nH]c(=O)sc5c4)ncnc3[nH]2)CC1 [Example 31, 6-[(6-{[4-(Dimethylamino)piperidin-1-yl]carbonyl}-7H-pyrrolo[2,3-d]pyrimidin-4-yl)amino]-1,3-benzothiazol-2(3H)-one]
12 nM	O=c1[nH]c2ccc(Nc3ncnc4[nH]c(S(=O)(=O)c5ccc(Cl)cc5)cc34)cc2s1 [Example 23, 6-({6-[(4-Chlorophenyl)sulfonyl]-7H-pyrrolo[2,3-d]pyrimidin-4-yl}amino)-1,3-benzothiazol-2(3H)-one]
1 nM	COc1cc2[nH]c(=O)sc2cc1Nc1ncnc2[nH]cc(F)c12 [Example 28, 6-[(5-Fluoro-7H-pyrrolo[2,3-d]pyrimidin-4-yl)amino]-5-methoxy-1,3-benzothiazol-2(3H)-one]
5 nM	CCCc1[nH]c2ncnc(Nc3cc4sc(=O)[nH]c4cc3OC)c2c1CC [Example 29, 6-[(5-Ethyl-6-propyl-7H-pyrrolo[2,3-d]pyrimidin-4-yl)amino]-5-methoxy-1,3-benzothiazol-2(3H)-one]
16 nM	CCCc1[nH]c2ncnc(Nc3ccc4[nH]c(=O)sc4c3)c2c1CC [Example 22, 6-[(5-Ethyl-6-propyl-7H-pyrrolo[2,3-d]pyrimidin-4-yl)amino]-1,3-benzothiazol-2(3H)-one]
11 nM	COc1cc2[nH]c(=O)sc2cc1Nc1ncnc2[nH]ccc12 [Example 19, 5-Methoxy-6-(7H-pyrrolo[2,3-d]pyrimidin-4-ylamino)-1,3-benzothiazol-2(3H)-one]
14 nM	O=C(c1cc2c(Nc3ccc4[nH]c(=O)sc4c3)ncnc2[nH]1)N1CCCCC1 [Example 36, 6-{[6-(Piperidin-1-ylcarbonyl)-7H-pyrrolo[2,3-d]pyrimidin-4-yl]amino}-1,3-benzothiazol-2(3H)-one]
39 nM	C[C@@H]1COCCN1C(=O)c1cc2c(Nc3ccc4[nH]c(=O)sc4c3)ncnc2[nH]1 [Example 34]
9 nM	O=c1[nH]c2ccc(Nc3ncnc4[nH]c(CCCO)cc34)cc2s1 [Example 17, 6-{[6-(3-Hydroxypropyl)-7H-pyrrolo[2,3-d]pyrimidin-4-yl]amino}-1,3-benzothiazol-2(3H)-one]
47 nM	C[C@H]1COCCN1C(=O)c1cc2c(Nc3ccc4[nH]c(=O)sc4c3)ncnc2[nH]1 [Example 35]
4 nM	CCOC(=O)c1cc2c(Nc3cc4sc(=O)[nH]c4cc3OC)ncnc2[nH]1 [Example 25, Ethyl 4-[(5-methoxy-2-oxo-2,3-dihydro-1,3-benzothiazol-6-yl)amino]-7H-pyrrolo[2,3-d]pyrimidine-6-carboxylate]
5 nM	Cc1ccc(S(=O)(=O)c2cc3c(Nc4ccc5[nH]c(=O)sc5c4)ncnc3[nH]2)cc1 [Example 24, 6-({6-[(4-Methylphenyl)sulfonyl]-7H-pyrrolo[2,3-d]pyrimidin-4-yl}amino)-1,3-benzothiazol-2(3H)-one]
6 nM	O=c1[nH]c2ccc(Nc3ncnc4[nH]cc(Br)c34)cc2s1 [Example 27, 6-[(5-Bromo-7H-pyrrolo[2,3-d]pyrimidin-4-yl)amino]-1,3-benzothiazol-2(3H)-one]
